Test results as given in ChEMBL document CHEMBL2417543, “Potential neuroprotective flavonoid-based inhibitors of CDK5/p25 from Rhus parviflora” (Bioorg Med Chem Lett, 2013).

Legend:
Format in all cases: protein-complex assay
[1] = target: T1, Cyclin-dependent kinase 5/CDK5 activator 1 (Homo sapiens, UniProt Q00535); assay: Inhibition of CDK5/p25 (unknown origin) after 30 mins by SDS-PAGE analysis
[2] = target: T2, Cyclin-dependent kinase 5/CDK5 activator 1 (Homo sapiens) (UniProt Q00535+Q15078); assay: Inhibition of CDK5/p25 (unknown origin)-mediated incorporation of gamma33P into substrate assessed as change in enzyme activity at 0.05 uM after 20 mins by scintillation counting analysis in presence of 33P-ATP relative to negative control; set-up: scale not given: the % may be the effect or the level left
T2 sequence (Q00535 whole entry): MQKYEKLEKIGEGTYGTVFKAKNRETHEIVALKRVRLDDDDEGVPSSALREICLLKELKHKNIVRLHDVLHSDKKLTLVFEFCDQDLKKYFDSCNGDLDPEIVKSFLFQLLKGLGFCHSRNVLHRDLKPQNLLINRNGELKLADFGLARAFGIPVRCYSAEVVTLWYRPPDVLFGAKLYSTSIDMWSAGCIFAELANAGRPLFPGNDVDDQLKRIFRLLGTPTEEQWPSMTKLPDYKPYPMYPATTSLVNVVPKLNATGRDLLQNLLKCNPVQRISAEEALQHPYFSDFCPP
T2 sequence (Q15078 99-307 partner limits assumed): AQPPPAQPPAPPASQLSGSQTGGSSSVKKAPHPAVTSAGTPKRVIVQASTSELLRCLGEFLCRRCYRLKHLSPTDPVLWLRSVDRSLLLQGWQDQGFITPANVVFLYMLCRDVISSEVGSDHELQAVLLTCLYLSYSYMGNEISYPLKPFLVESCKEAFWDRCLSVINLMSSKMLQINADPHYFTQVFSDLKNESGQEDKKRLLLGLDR

[3] = target: T2, Cyclin-dependent kinase 5/CDK5 activator 1 (Homo sapiens); assay: Inhibition of CDK5/p25 (unknown origin)-mediated incorporation of gamma33P into substrate assessed as change in enzyme activity at 0.5 uM after 20 mins by scintillation counting analysis in presence of 33P-ATP relative to negative control; set-up: scale not given: the % may be the effect or the level left
[4] = target: T2, Cyclin-dependent kinase 5/CDK5 activator 1 (Homo sapiens); assay: Inhibition of CDK5/p25 (unknown origin)-mediated incorporation of gamma33P into substrate assessed as change in enzyme activity at 50 uM after 20 mins by scintillation counting analysis in presence of 33P-ATP relative to negative control; set-up: scale not given: the % may be the effect or the level left
[5] = target: T2, Cyclin-dependent kinase 5/CDK5 activator 1 (Homo sapiens); assay: Inhibition of CDK5/p25 (unknown origin)-mediated incorporation of gamma33P into substrate assessed as change in enzyme activity at 0.005 uM after 20 mins by scintillation counting analysis in presence of 33P-ATP relative to negative control; set-up: scale not given: the % may be the effect or the level left
[6] = target: T2, Cyclin-dependent kinase 5/CDK5 activator 1 (Homo sapiens); assay: Inhibition of CDK5/p25 (unknown origin)-mediated incorporation of gamma33P into substrate assessed as change in enzyme activity at 5 uM after 20 mins by scintillation counting analysis in presence of 33P-ATP relative to negative control; set-up: scale not given: the % may be the effect or the level left
[7] = target: T1, Cyclin-dependent kinase 5/CDK5 activator 1; assay: Inhibition of CDK5/p25 (unknown origin)-mediated incorporation of gamma33P into substrate after 20 mins by scintillation counting analysis in presence of 33P-ATP

T1 sequence (Q00535 whole entry): as the sequence (Q00535 whole entry) above
T1 sequence (Q15078 whole entry, further chain): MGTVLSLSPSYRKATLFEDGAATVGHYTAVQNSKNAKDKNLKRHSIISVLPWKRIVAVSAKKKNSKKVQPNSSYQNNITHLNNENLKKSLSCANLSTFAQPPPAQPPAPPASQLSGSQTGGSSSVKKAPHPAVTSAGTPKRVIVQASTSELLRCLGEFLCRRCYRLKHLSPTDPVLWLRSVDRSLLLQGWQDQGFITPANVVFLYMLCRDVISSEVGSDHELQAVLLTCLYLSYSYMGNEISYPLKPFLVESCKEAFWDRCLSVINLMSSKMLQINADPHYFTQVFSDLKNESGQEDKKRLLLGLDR

Compound	IC50 [1]	Activity [2]	Activity [3]	Activity [4]	Activity [5]	Activity [6]	IC50 [7]
O=C1/C(=C/c2ccc(O)c(O)c2)Oc2cc(O[C@@H]3O[C@H](CO)[C@@H](O)[C@H](O)[C@H]3O)cc(O)c21	22.3 µM	-4%	-5%	-65%	-2%	-20%	24.3 µM
O=c1c(O[C@@H]2O[C@H](CO)[C@H](O)[C@H](O)[C@H]2O)c(-c2ccc(O)c(O)c2)oc2cc(O)cc(O)c12 [HYPEROSIDE]	10.3 µM						
O=C1/C(=C/c2ccc(O)c(O)c2)Oc2cc(O)ccc21 [SULFURETIN]	37 µM						
O=C1c2c(O[C@@H]3O[C@H](CO)[C@@H](O)[C@H](O)[C@H]3O)cc(O)cc2OC1(O)Cc1ccc(O)cc1 (some centres undefined)	44.4 µM	1%	2%	-15%	-3%	-7%	> 50 µM

These reach a lower IC50 [1]. Values come first.

IC50 [1]	Activity [2]	Activity [3]	Activity [4]	Activity [5]	Activity [6]	IC50 [7]	Compound
9.29 µM							O=c1cc(-c2ccc(O)cc2)oc2c(-c3c(O)cc(O)c4c(=O)cc(-c5ccc(O)cc5)oc34)c(O)cc(O)c12 [CUPRESSUFLAVONE]
3.5 µM	-2%	-20%	-88%	0%	-47%	4.81 µM	O=C1/C(=C/c2ccc(O)c(O)c2)Oc2cc(O)cc(O)c21 [AUREUSIDIN]
